These results are taken from patent publication US10208011B2, “Benzothiophene estrogen receptor modulators” (G1 Therapeutics, Inc., priority 2017, dated 2019).

Experiment [1] has as its target estrogen receptor α in MCF7 cells (Homo sapiens (Human), UniProt P03372). In words: Estrogen Receptor (ER) Degradation Assay (In-Cell Western). It is filed as cell-based. The following applies: for IC50: 24 hours, In-Cell Western; for % Estrogen Receptor Remaining: vehicle set to 100%. The method, then:
A screening strategy was implemented utilizing an In-Cell Western assay to measure their ability to degrade the estrogen receptor in vitro. MCF7 cells, which are estrogen receptor positive, were plated at a cell density of […] into black walled clear bottom 96-well plates. Cells were incubated in phenol red free Dulbecco's Modified Eagle Media (DMEM) supplemented with 8% charcoal-stripped fetal bovine calf serum for 24 hours in a humidified 37° C. incubator. Concentrated stock compounds were diluted to 10× in complete media. Compounds were added to the plated cells in a dose-dependent manner ranging from 1E-12 to 1E-05 M and incubated for an additional 24 hours at 37° C. Culture medium was removed from the culture plates by gentle inversion. Cells were fixed in 4% paraformaldehyde in 1× phosphate buffered saline-calcium magnesium free (PBS-CMF) for 15 minutes at room temperature, washed 3 times for 5 minutes each in 1×PBS-CMF. Cells were permeabilized in immunofluorescence (IF) blocking buffer (Cell Signaling #12411) containing 0.3% Triton X100. Cells were washed 3 times for 5 minutes each in 1×PBS-CMF and incubated in estrogen receptor α (D6R2W) rabbit primary antibody (Cell Signaling #13258) diluted 1:300 in IF antibody dilution buffer (Cell Signaling #12378). Cells were washed 3 times for 5 minutes each in 1×PBS-CMF and stained with goat anti-rabbit (Biotium #CF770) secondary antibody diluted 1:2000 in IF antibody dilution buffer and normalizing stain CellTag 700 diluted 1:500 (Licor #926-41090). ER protein expression was assessed by the Licor Odyssey CLx imaging system using Image Studio v5.2. Data is processed utilizing GraphPad Prism 7 by subtracting background from the vehicle and setting the vehicle to 100% ER activity, followed by comparing treated samples to vehicle. This procedure was used to produce the graph in FIG. 2, FIG. 3, FIG. 4, FIG. 5, FIG. 6, FIG. 7, and FIG. 8.
(§1) In the below table for the Estrogen Receptor Degradation Assay and the Human ERα Reporter Assay: […]

The target of experiment [2] is human estrogen receptor (ERα) (Homo sapiens (Human), UniProt P03372). In words: Human ERα Reporter Assay (Indigo Biosciences). The following applies: antagonist mode, 17β-estradiol 8E-10 M, 24 hours. In kind it is cell-based. As for the experimental part:
All reagents used in this assay was supplied in the Human ERα Reporter Assay by Indigo Biosciences # IB00401. In an effort to screen selective estrogen receptor degraders (SERDs), the Human ERα Reporter Assay, supplied by Indigo Biosciences, was utilized to quantify antagonist functional activity against the human estrogen receptor. Reporter cells were thawed at 37° C. and added to pre-warmed to 37° C. cell recovery medium (CRM). Stock concentration of 17β-estradiol was serially diluted in CRM. Diluted 17β-estradiol was added to CRM containing reporter cells resulting in a working concentration of 1.6 nM (2×). Cells plus 17β-estradiol were dispensed in a kit-supplied white walled 96-well plate. Concentrated stocks of test compounds were diluted to 2× working concentrations in cell screening medium (CSM). 2× concentrated compounds were added to the plated cells in a dose-dependent manner resulting in a final concentration range of 1E-11 to 1E-5 M and a final 17β-estradiol concentration of 8E-10 M. Assay plates were incubated for 24 hours in a humidified 37° C. incubator. Culture medium was removed from the assay plates by inversion. Detection substrate and buffer was warmed to room temperature, mixed thoroughly, and immediately added to the assay plates. Assay plates were incubated for 15 minutes at room temperature protected from light. Luminescence was measured in a Synergy HTX luminescence plate reader. Data is processed utilizing GraphPad Prism 7 by graphing the relative light units measured at each compound concentration. This procedure was used to produce the graph in FIG. 1, FIG. 9, FIG. 10, FIG. 11, FIG. 12, FIG. 13, and FIG. 14.
as §1
A general note: Reporter assays use an easily measured gene product as a stand-in for the process of interest.

estrogen receptor α in MCF7 cells, sequence (P03372 whole entry): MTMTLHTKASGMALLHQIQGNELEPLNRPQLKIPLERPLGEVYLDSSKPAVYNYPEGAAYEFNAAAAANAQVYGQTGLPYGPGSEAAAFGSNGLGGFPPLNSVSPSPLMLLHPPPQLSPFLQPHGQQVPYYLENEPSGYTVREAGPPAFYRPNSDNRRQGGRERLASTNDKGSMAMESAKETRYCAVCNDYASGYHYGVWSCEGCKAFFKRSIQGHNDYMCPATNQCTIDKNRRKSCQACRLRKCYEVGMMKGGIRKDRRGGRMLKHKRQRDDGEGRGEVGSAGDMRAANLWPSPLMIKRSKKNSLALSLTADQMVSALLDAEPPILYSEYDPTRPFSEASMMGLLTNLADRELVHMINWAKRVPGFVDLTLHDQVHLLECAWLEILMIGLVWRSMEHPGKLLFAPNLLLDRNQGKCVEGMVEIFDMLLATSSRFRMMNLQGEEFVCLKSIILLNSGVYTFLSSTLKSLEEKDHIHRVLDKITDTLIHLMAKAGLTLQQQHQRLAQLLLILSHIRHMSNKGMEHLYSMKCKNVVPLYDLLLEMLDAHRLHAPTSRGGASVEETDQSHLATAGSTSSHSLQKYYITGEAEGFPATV
human estrogen receptor (ERα), sequence (P03372 whole entry): as above

As to `CCC(C)NCCc1ccc(Oc2c(C(=O)c3c(C)cc(F)cc3C)sc3cc(O)ccc23)cc1` (stereo not drawn) [Compound 111, (3-(4-(2-(sec-butylamino)ethyl)phenoxy)-6-hydroxybenzo[b]thiophen-2-yl)(4-fluoro-2,6-dimethylphenyl)methanone], the IC50 in experiment [1] and in experiment [2] was below 1000 nM throughout. In addition, in experiment [1], the “% Estrogen Receptor Remaining” value was “**** (**** denotes 0-40% Estrogen Receptor remaining)”.

Turning to `Cc1cc(F)cc(C)c1C(=O)c1sc2cc(O)ccc2c1Oc1ccc(CCN2CC(CF)C2)cc1` [Compound 117, (4-fluoro-2,6-dimethylphenyl)(3-(4-(2-(3-(fluoromethyl)azetidin-1-yl)ethyl)phenoxy)-6-hydroxybenzo[b]thiophen-2-yl)methanone], the IC50 in experiment [1] and in experiment [2] was below 1000 nM throughout. Besides, in experiment [1], the “% Estrogen Receptor Remaining” value is listed as “*** (*** denotes 41-70% Estrogen Receptor remaining)”.

In the case of `CNCCCc1ccc(Oc2c(C(=O)c3c(C)cc(F)cc3C)sc3cc(O)ccc23)cc1` [Compound 116, (4-fluoro-2,6-dimethylphenyl)(6-hydroxy-3-(4-(3-(methylamino)propyl)phenoxy)benzo[b]thiophen-2-yl)methanone], in experiment [1], the IC50 (commonly the concentration at which inhibition is half-maximal) is below 1000 nM and the “% Estrogen Receptor Remaining” value is given as “*** (*** denotes 41-70% Estrogen Receptor remaining)”. The IC50 in experiment [2] was below 1000 nM.

In the case of `Cc1cc(F)cc(C)c1C(=O)c1sc2cc(O)ccc2c1Oc1ccc(CCNC2CCCCC2)cc1` [Compound 110, (3-(4-(2-(cyclohexylamino)ethyl)phenoxy)-6-hydroxybenzo[b]thiophen-2-yl)(4-fluoro-2,6-dimethylphenyl)methanone], in experiment [1], the IC50 is below 1000 nM and the “% Estrogen Receptor Remaining” value is recorded as “*** (*** denotes 41-70% Estrogen Receptor remaining)”. Besides, in experiment [2], the IC50 is below 1000 nM.

Take `Cc1cc(F)cc(C)c1C(=O)c1sc2cc(O)ccc2c1Oc1ccc(N2CCCCC2)cc1` [Compound 101, (4-fluoro-2,6-dimethylphenyl)(6-hydroxy-3-(4-(piperidin-1-yl)phenoxy)benzo[b]thiophen-2-yl)methanone]: in experiment [1], the IC50 is below 1000 nM and the “% Estrogen Receptor Remaining” value is “*** (*** denotes 41-70% Estrogen Receptor remaining)”. Besides, the IC50 in experiment [2] is below 1000 nM.
